Reference: patent US20250127168A1, “METHOD FOR PATHOGENS, MICROORGANISMS, AND PARASITES INACTIVATION” (New York Blood Center, Inc., priority 2018, published 2025)

Columns and labels:
[1] = Neutralization of compound X by ethyl 2-mercaptoacetate (LCMS); type: physicochemical; conditions: PBS, RT; for Peak Areas (LCMS): 100 μM X + 10 mM ethyl 2-mercaptoacetate
Protocol: 100 μM solution of compound X in phosphate buffered saline was incubated at room temperature with 10 mM of ethyl-2-mercaptoacetate, and the change of the concentration of compound X, as well as the formation of the intermediate compound of neutralization (XXI) and the final compound of neutralization XXII was determined by LCMS analysis of the mixture. The reaction scheme of neutralization is presented below. The peak areas of compound X, intermediate neutralization product, Q1 (compound XXI) and final neutralization product, Q2 (compound XXII) are presented in the Table 8 below, and in FIG. 18.

[2] = Neutralization of compound X with methyl thiosalicylate (LCMS); type: physicochemical; conditions: 100 μM compound X, 10 mM methyl thiosalicylate, PBS
Protocol: The rate of neutralization of […] can be determined by plotting of logarithm of compound X concentration, determined by its peak area against the time of incubation.

[3] = Binding of compound X to sulfonic cation exchange resin (Purolite NRW160, Na+ form) through ion pairs; type: physicochemical; conditions: 50 mg dry beads in one mL of 100 μM solution in PBS
Protocol: Purolite NRW160 polystyrene divinylbenzene cross-linked resin functionalized with sulfonic groups in the H^+ form, 500 g was transferred into the Na^+ form by the following steps: The beads were washed on a vacuum filter and under a sterile hood with 3 volumes of saturated NaCl solution, followed by two volume of 1 M NaOH. After NaOH sterilization beads were washed by sterile deionized water until the pH of the rinsings became neutral. The beads were incubated with two volumes of methanol for 15 min and after removing of methanol were rinsed again with three volumes of sterile deionized water. After final incubation in methanol (2 volumes) the alcohol was removed by filtration and beads were dried under the vacuum.
Dry beads, 50 mg were added to one mL of 100 μM solution of compound X in phosphate buffered saline.

[4] = test system: 21-mer synthetic oligodeoxyribonucleotide (SEQ ID NO:1); test: Reactivity toward nucleic acids, HPLC; type: biochemical; conditions: 10 μM oligonucleotide, 200 μM compound, PBS pH 6.7, 37° C., 6 h
[5] = test system: synthetic 23-mer oligoribonucleotide (SEQ ID NO:2); test: Reactivity toward nucleic acids, mass spectrometry; type: biochemical; conditions: 100 μM oligonucleotide, 100 μM compound, PBS pH 7, room temperature, 6 min
[6] = Neutralization of compound X with glutathione; conditions: in presence of glutathione, same conditions
[7] = Neutralization of compound X with thiophenol (LCMS); conditions: for ratio of the peak areas of compounds X, XXVI and XXVII: 100 μM X, 10 mM thiophenol, PBS
Text: In the right panel are shown the mass spectra of the corresponding peaks.

[8] = Neutralization of compound VI by sodium thiosulfate (LCMS); type: physicochemical; conditions: for first-order rate constant of reaction with Na2S2O3: Compound VI 100 μM, 1 mM Na2S2O3 in PBS
Protocol: The rate of reaction of Compound VI, 100 μM with 1 mM Na2S2O3 in PBS was determined by LCMS analysis of the reaction mixture (FIG. 19). […] LCMS analysis of the reaction product confirmed that it was the bisthiosulfate ester (compound XXIII formed by reacting of compound VI with two molecules of Na2S2O3.

[9] = test system: whole blood or red blood cells concentrate; test: Quality of treated whole blood and red blood cells concentrate (complete blood count and biochemistry); conditions: 500 μM for 6 hours at RT, neutralized with sodium thiosulfate; storage at 4-6° C., weekly testing
Protocol: Ten mL samples of whole blood or red blood cells concentrate (RBCC, 25 mL) were treated with 500 μM compound VI for 6 hours at RT. The residual compound VI was neutralized by the same volume of 10 mM sodium thiosulfate for 2 hours at RT. For controls, identical samples of whole blood or RBCC were treated with saline and sodium thiosulfate without compound VI or with saline only without compound VI and/or thiosulfate. Aliquots of whole blood and RBCC from each sample were subjected to complete blood count and biochemistry analysis using IDEXX Procyte Dx Hematology Analyzer and IDEXX Catalyst Dx Chemistry Analyzer according to manufacturer recommendations. The samples were analyzed immediately after the treatment and re-analyzed after one week for whole blood and every week for 5 weeks of storage at 4-6° C. for RBCC. The following parameters were measured: RBC number, hemoglobin, hematocrit, mean corpuscular volume, mean corpuscular hemoglobin, red cell distribution, reticulocyte count, platelets, mean platelet volume, white blood cells, neutrophils, lymphocytes, monocytes, eosinophils, basophils, chloride, potassium, sodium, glucose, and lactate concentrations.

CN(CCCCN(C)CCCN1CC1)CCCN(C)CCCN1CC1 [Compound X]
first order rate constant of concentration decrease ([1]; 10 mM ethyl 2-mercaptoacetate): 0.022 min⁻¹
Peak Areas (LCMS) ([1]; Time 6 min): 161.9
Peak Areas (LCMS) ([1]; Time 14.5 min): 128.8
Peak Areas (LCMS) ([1]; Time 23.1 min): 123.1
Peak Areas (LCMS) ([1]; Time 31.6 min): 96.3
Peak Areas (LCMS) ([1]; Time 40.2 min): 85
Peak Areas (LCMS) ([1]; Time 48.7 min): 76.9
Peak Areas (LCMS) ([1]; Time 57.3 min): 52.9
Peak Areas (LCMS) ([1]; Time 65.8 min): 42.7
Peak Areas (LCMS) ([1]; Time 74.3 min): 33.1
Peak Areas (LCMS) ([1]; Time 82.9 min): 26
Peak Areas (LCMS) ([1]; Time 91.4 min): 23.2
Peak Areas (LCMS) ([1]; Time 100.0 min): 17.4
Peak Areas (LCMS) ([1]; Time 108.5 min): 14
Peak Areas (LCMS) ([1]; Time 117.1 min): 11.5
Peak Areas (LCMS) ([1]; Time 125.6 min): 7.6
compound X half-life T1/2 [2]: 0.277 h
concentration of compound X in the supernatant [3]: below 30 nM
covalent adducts with the oligonucleotide (HPLC) [4]: appearance of covalent adducts
covalent adduct with the oligonucleotide (MS) [5]: covalent mono-adduct
half-life of compound X [6]: 7.5 h
ratio of the peak areas of compounds X, XXVI and XXVII ([7]; after 1 min and 40 sec (100 sec)): 21
ratio of the peak areas of compounds X, XXVI and XXVII ([7]; after 10 min): 3
ratio of the peak areas of compounds X, XXVI and XXVII ([7]; after 20 min): 0.5
half-life of compound X ([7]; in presence of 10 mM of thiophenol): below 1 min

CN(CCCCN(C)CCCN1CC1)CCCN1CC1 [Compound VI, N^1,N^4-bis(3-(aziridin-1-yl)propyl)-N^1,N^4-dimethylbutane-1,4-diamine]
residual compound VI concentration ([8]; 10 mM Na2S2O3, 25° C., after 2 h, extrapolated): 5.5e-07 pM
first-order rate constant of reaction with Na2S2O3 ([8]; 6° C.): 0.00614 min⁻¹
first-order rate constant of reaction with Na2S2O3 ([8]; 25° C.): 0.0379 min⁻¹
half-live of compound VI ([8]; in 10 mM Na2S2O3 and 25° C., extrapolated from rate): 1.83 min
cellular or biochemical characteristics of treated blood versus controls [9]: No differences in cellular or biochemical characteristics
